Measured values published in US8778871B2 (Takeda Pharmaceutical Company Limited, priority 2004, dated 2014).
Non-standard residues stand in square brackets, D forms with d. Residues, ends and D or L forms follow the SMILES beside them. *: point of attachment. Arg(Me) = CNC(=N)NCCC[C@H](N)C(=O)O; 4Pal = N[C@@H](Cc1ccncc1)C(=O)O; Cha = N[C@@H](CC1CCCCC1)C(=O)O; Orn = NCCC[C@H](N)C(=O)O; Bz = O=C(c1ccccc1)*; azaGly = NNC(=O)O

Legend:
Assay type in all cases: cell-based
hOT7T175 [1] = target: T1, hOT7T175 (Homo sapiens, UniProt Q969F8, L364H); assay: Intracellular Ca ion level-increasing activity using FLIPR (180 seconds; specific activity to Metastin (1-54)); conditions: hOT7T175/CHO, relative to Metastin (1-54) = 1
T1 construct: expressed in transfected cells

hOT7T175 [2] = target: T1, hOT7T175; conditions: hOT7T175/CHO, FLIPR, evaluation for 40 seconds after initiation of the reaction
Experimental: The intracellular Ca ion level-increasing activity was measured using FLIPR as in TEST EXAMPLE 2.

hOT7T175 [3] = target: T2, hOT7T175 (Homo sapiens, UniProt Q969F8); assay: Intracellular Ca ion level-increasing activity using FLIPR (180 seconds; specific activity to Metastin (1-54)); conditions: hOT7T175/CHO, change in intracellular calcium ion level for 180 seconds, Tables 21-23
T2 construct: expressed in transfected cells
T2 sequence (Q969F8 whole entry L364H): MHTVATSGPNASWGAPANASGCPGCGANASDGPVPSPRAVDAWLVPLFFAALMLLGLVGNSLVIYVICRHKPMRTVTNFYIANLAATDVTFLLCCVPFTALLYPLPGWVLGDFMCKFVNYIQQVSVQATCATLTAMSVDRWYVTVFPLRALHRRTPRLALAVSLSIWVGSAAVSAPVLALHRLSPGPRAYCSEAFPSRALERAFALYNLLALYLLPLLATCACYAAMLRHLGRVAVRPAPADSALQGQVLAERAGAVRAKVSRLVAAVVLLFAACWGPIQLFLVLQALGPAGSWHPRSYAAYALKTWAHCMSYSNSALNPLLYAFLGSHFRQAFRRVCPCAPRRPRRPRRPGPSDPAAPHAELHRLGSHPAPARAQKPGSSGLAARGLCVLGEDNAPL

T1 sequence (Q969F8 whole entry L364H): as above

| Compound | Specific Act. (intracellular Ca ion level-increasing activity, specific activity to Metastin (1-54)) (hOT7T175 [1]) | Specific Act. (EC50/MS10 EC50) (hOT7T175 [2]) | intracellular Ca ion level-increasing activity [specific activity to Metastin (1-54)] (hOT7T175 [3]) |
| --- | --- | --- | --- |
| CC(C)C[C@H](NC(=O)CNC(=O)[C@H](Cc1ccccc1)NC(=O)[C@H](CO)NC(=O)[C@H](CC(N)=O)NC(=O)[C@H](Cc1c[nH]c2ccccc12)NC(=O)[C@H](CC(N)=O)NC(=O)[C@@H](N)Cc1ccc(O)cc1)C(=O)N[C@@H](CCCNC(=N)N)C(=O)N[C@@H](Cc1ccccc1)C(N)=O [Compound No. 3, reference compound] | 10 | – | – |
| CC(C)C[C@H](NC(=O)CNC(=O)[C@H](Cc1ccccc1)NC(=O)[C@H](CO)NC(=O)[C@H](CC(N)=O)NC(=O)[C@H](Cc1c[nH]c2ccccc12)NC(=O)[C@H](CC(N)=O)NC(=O)[C@@H](N)Cc1ccc(O)cc1)C(=O)N[C@@H](CCCNC(=N)N)C(=O)N[C@@H](Cc1ccncc1)C(N)=O [Compound No. 17] (H-YNWNSFGLR[4Pal]-NH2) | 5 | – | – |
| COc1ccc(C[C@H](NC(=O)[C@H](CCCNC(=N)N)NC(=O)[C@H](CC(C)C)NC(=O)CNC(=O)[C@H](Cc2ccccc2)NC(=O)[C@H](CO)NC(=O)[C@H](CC(N)=O)NC(=O)[C@H](Cc2c[nH]c3ccccc23)NC(=O)[C@H](CC(N)=O)NC(=O)[C@@H](N)Cc2ccc(O)cc2)C(N)=O)cc1 [Compound No. 18] (H-YNWNSFGLRY(Me)-NH2) | 1 | – | – |
| CC(C)C[C@H](NC(=O)CNC(=O)[C@H](Cc1ccccc1)NC(=O)[C@H](CO)NC(=O)[C@H](CC(N)=O)NC(=O)[C@H](Cc1c[nH]c2ccccc12)NC(=O)[C@H](CC(N)=O)NC(=O)[C@@H](N)Cc1ccc(O)cc1)C(=O)N[C@@H](CCCNC(=N)N)C(=O)N[C@@H](Cc1ccccc1F)C(N)=O [Compound No. 19] | 2 | – | – |
| CNC(=N)NCCC[C@H](NC(=O)[C@H](CC(C)C)NC(=O)CNC[C@H](Cc1ccccc1)NC(=O)[C@H](CO)NC(=O)[C@H](CC(N)=O)NC(=O)[C@H](Cc1c[nH]c2ccccc12)NC(=O)[C@H](CC(N)=O)NC(=O)[C@H](N)Cc1ccc(O)cc1)C(=O)N[C@@H](Cc1ccccc1)C(N)=O [Compound No. 308, D-Tyr-Asn-Trp-Asn-Ser-PheΨ(CH2NH)Gly-Leu-Arg(Me)-Phe-NH2] | – | 2.6 | 2 |
| CC(C)C[C@H](NC(=O)CNC(=O)[C@H](Cc1ccccc1)NC(=O)[C@H](CO)NC(=O)[C@H](CC(N)=O)NC(=O)[C@H](Cc1c[nH]c2ccccc12)NC(=O)[C@H](CC(N)=O)NC(=O)[C@@H](N)Cc1ccc(O)cc1)C(=O)N[C@@H](CCCN)C(=O)N[C@@H](Cc1ccccc1)C(N)=O [Compound No. 314] (H-YNWNSFGL[Orn]F-NH2) | – | 4.4 | 1 |
| CNC(=N)NCCC[C@H](NC(=O)[C@H](CC(C)C)NC(=O)NNC(=O)[C@H](Cc1ccccc1)NC(=O)[C@H](CO)NC(=O)[C@H](CC(N)=O)NC(=O)[C@H](Cc1c[nH]c2ccccc12)NC(=O)[C@H](CC(N)=O)NC(=O)[C@H](N)Cc1ccc(O)cc1)C(=O)N[C@@H](Cc1ccc(F)cc1)C(N)=O [Compound No. 318, D-Tyr-Asn-Trp-Asn-Ser-Phe-AzaGly-Leu-Arg(Me)-Phe(4F)-NH2] | – | 2.9 | 5 |
| (2S)-2-(3-Indolylprpionyloxy)-3-phenylpropionyl-AzaGly-Leu-Arg(Me)-Trp-NH2 [Compound No. 379] | – | 3.0 | 2 |
| Ac-NSF[azaGly]L[Arg(Me)]W-NH2 [Compound No. 510] | – | 3.5 | 3 |
| Ac-Phe-AzaGly-Leu-Arg(Me)-Trp-NH2 [Compound No. 358] | – | 5.6 | 2 |
| Acp-D-Tyr-D-Pya(4)-Asn-Ser-Phe-AzaGly-Leu-Arg(Me)-Phe-NH2 [Compound No. 504] | – | 6.9 | 2 |
| Benzoyl-Phe-AzaGly-Leu-Arg(Me)-Trp-NH2 [Compound No. 353] | – | 0.8 | 10 |
| Benzoyl-PheΨ(NHCO)Gly-Leu-Arg(Me)-Trp-NH2 [Compound No. 423] | – | 5.6 | 5 |
| Bz-F[azaGly]L[Arg(Me)]F-NH2 [Compound No. 341] | – | 2.8 | 2 |
| Bz-[Cha][azaGly]L[Arg(Me)]W-NH2 [Compound No. 449] | – | 4.2 | 5 |
| Cyclopropanecarbonyl-Cha-AzaGly-Leu-Arg(Me)-Trp-NH2 [Compound No. 451] | – | 2.6 | 5 |
| Cyclopropanecarbonyl-Phe-AzaGly-Leu-Arg(Me)-Trp-NH2 [Compound No. 447] | – | 1.4 | 5 |
| D-Tyr-D-Pya(4)-Asn-Ile-Phe-AzaGly-Leu-Arg(Me)-Trp-NH2 [Compound No. 498] | – | 1.5 | 7 |
| D-Tyr-D-Pya(4)-Asn-Ser-Cha-Ala-Leu-Arg(Me)-Trp-NH2 [Compound No. 497] | – | 1.4 | 2 |
| D-Tyr-D-Pya(4)-Asn-Ser-Phe-AzaGly-Leu-Har-Phe-NH2 [Compound No. 488] | – | 5.5 | 1 |
